# What was measured:
# Assay type in all cases: in vivo
# [1] = system: crabgrass (Digitaria sp); test: Example 4 post-emergence greenhouse pot test, crabgrass
# Protocol: (§1) Test compositions containing sulfentrazone (75 DF formulation), quniclorac, (DRIVE® 75 DF Herbicide) or mixtures of sulfentrazone and quinclorac at ratios of 1:1 to 1:5, were diluted with water to provide the appropriate test rate concentrations. A nonionic surfactant (0.25%) was added to each test solution. The test weeds include crabgrass (Digitaria sp), Chickweed (Stellaria media), Hemp Sesbania (Sesbania exaltata), Kochia (Kochia scoparia), Ivyleaf Morningglory (Ipomoea hederacea), Redroot Pigweed (Amaranthus retroflexus) and yellow nutsedge (Cyperus esculentusi).
# (§2) For post-emergence testing, three disposable 3 inch square pots for each rate of application of each herbicide were filled with a soil, comprised of peat moss, vermiculite, bark ash, pine bark, limestone and a wetting agent, to which 8 to 10 seeds were planted. The pots were placed in a greenhouse and watered daily, thus allowing the seeds to germinate and the foliage to develop for 22 days, 3 months for Kochia.
# (§3) Pots designated for treatment were placed on a conveyor belt and the conveyor belt fed under a spray nozzle mounted about ten inches above the foliage. The spray of herbicidal solution was commenced and once stabilized; the pots were passed under the spray at a speed to receive a coverage equivalent of 30 gallons per acre. The application rates are those shown in Table 4 below for the individual herbicidal solutions and the mixture of sulfentrazone and quinclorac. The post-emergence pots were immediately placed in the green-house and not watered until 24 hours after treatment with the test solution. Thereafter they were regularly watered at ground level. The control of weeds was evaluated in each experimental test from 2 to 20 days after treatment (DAT). The results, shown as an average of the replications, were compared with results observed in untreated control pots in the same tests.
# (§4) Percent control was determined by a method similar to the 0 to 100 rating system disclosed in “Research Methods in Weed Science,” 2nd ed., B. Truelove, Ed.; Southern Weed Science Society; Auburn University, Auburn, Ala., 1977.
# [2] = system: yellow nutsedge (Cyperus esculentusi); test: Example 3 post-emergence greenhouse pot test, nutsedge
# Protocol: Test compositions containing sulfentrazone (DISMISS™ Turf Herbicide), quniclorac, (DRIVE® 75 DF Herbicide) or mixture of sulfentrazone and quinclorac in a three to one ratio, prepared as described above, were diluted with water to provide the appropriate test rate concentrations. A nonionic surfactant (0.25%) was added to each test solution.
# The test weeds include Red River crabgrass (Digitaria ciliaris) and yellow nutsedge (Cyperus esculentusi).
# For post-emergence testing, three disposable 3 inch square pots for each rate of application of each herbicide were filled with a soil, comprised of peat moss, vermiculite, bark ash, pine bark, limestone and a wetting agent, to which 8 to 10 seeds were planted. The pots were placed in a greenhouse and watered daily, thus allowing the seeds to germinate and the foliage to develop.
# as §3, with “Table 3” for “Table 4”, “from 1” for “from 2”, “to 22” for “to 20”
# as §4
# [3] = system: Smooth Crabgrass (Digitaria ischaemum); test: Example 2 post-emergent turf plot test, tillered crabgrass; settings: 0.75 lb ai/acre
# Protocol: The experimental design used randomized plots with post-emergent treatment and three replications per test trial. The size of each experimental plot was 4 feet by 6 feet. The application of each test composition was performed with pressurized back-pack sprayers, calibrated to spray 200 gallons per acre. Test compositions containing sulfentrazone (DISMISS™ Turf Herbicide), quinclorac, (FACET® 75 DF herbicide) or a mixture of sulfentrazone and quinclorac in a one to three ratio, prepared as described above, were diluted with water to provide the appropriate test rate concentrations.
# The control of weeds was evaluated in each experimental plot from 1 to 27 days after treatment (DAT) of each test rate. The results, shown as an average of the replications, were compared with results observed in untreated control plots in the same trials.
# [4] = system: Redroot Pigweed (Amaranthus retroflexus); test: Example 4 post-emergence greenhouse pot test, pigweed
# Protocol: as §1, §2, §3, §4
compound,measurement,setting,value
"O=C(O)c1c(Cl)ccc2cc(Cl)cnc12 [B, 3,7-dichloro-8-quinolinecarboxylic acid]",Percent Control,"[1]; 0.25 lb ai/acre, 2 DAT",10%
same,Percent Control,"[1]; 0.25 lb ai/acre, 7 DAT",20%
same,Percent Control,"[1]; 0.25 lb ai/acre, 14 DAT",20%
same,Percent Control,"[1]; 0.25 lb ai/acre, 20 DAT",10%
same,Percent Control,"[1]; 0.5 lb ai/acre, 2 DAT",0%
same,Percent Control,"[1]; 0.5 lb ai/acre, 7 DAT",10%
same,Percent Control,"[1]; 0.5 lb ai/acre, 14 DAT",60%
same,Percent Control,"[1]; 0.5 lb ai/acre, 20 DAT",50%
same,Percent Control,"[1]; 0.75 lb ai/acre, 2 DAT",0%
same,Percent Control,"[1]; 0.75 lb ai/acre, 7 DAT",0%
same,Percent Control,"[1]; 0.75 lb ai/acre, 14 DAT",60%
same,Percent Control,"[1]; 0.75 lb ai/acre, 20 DAT",50%
same,Percent Control,"[1]; 1.0 lb ai/acre, 2 DAT",0%
same,Percent Control,"[1]; 1.0 lb ai/acre, 7 DAT",10%
same,Percent Control,"[1]; 1.0 lb ai/acre, 14 DAT",60%
same,Percent Control,"[1]; 1.0 lb ai/acre, 20 DAT",70%
same,Percent Control,"[1]; 1.25 lb ai/acre, 2 DAT",0%
same,Percent Control,"[1]; 1.25 lb ai/acre, 7 DAT",10%
same,Percent Control,"[1]; 1.25 lb ai/acre, 14 DAT",60%
same,Percent Control,"[1]; 1.25 lb ai/acre, 20 DAT",70%
same,Percent Control,"[2]; 1-5 leaf stage, 7 days old, 0.375 lb ai/acre, 1 DAT",0%
same,Percent Control,"[2]; 1-5 leaf stage, 7 days old, 0.375 lb ai/acre, 3 DAT",0%
same,Percent Control,"[2]; 1-5 leaf stage, 7 days old, 0.375 lb ai/acre, 7 DAT",0%
same,Percent Control,"[2]; 1-5 leaf stage, 7 days old, 0.375 lb ai/acre, 14 DAT",0%
same,Percent Control,"[2]; 1-5 leaf stage, 7 days old, 0.375 lb ai/acre, 21 DAT",0%
same,Percent Control,"[2]; 1-5 leaf stage, 7 days old, 0.75 lb ai/acre, 1 DAT",0%
same,Percent Control,"[2]; 1-5 leaf stage, 7 days old, 0.75 lb ai/acre, 3 DAT",0%
same,Percent Control,"[2]; 1-5 leaf stage, 7 days old, 0.75 lb ai/acre, 7 DAT",0%
same,Percent Control,"[2]; 1-5 leaf stage, 7 days old, 0.75 lb ai/acre, 14 DAT",0%
same,Percent Control,"[2]; 1-5 leaf stage, 7 days old, 0.75 lb ai/acre, 21 DAT",0%
same,Percent Control,"[2]; 1-5 leaf stage, 7 days old, 1.0 lb ai/acre, 1 DAT",0%
same,Percent Control,"[2]; 1-5 leaf stage, 7 days old, 1.0 lb ai/acre, 3 DAT",0%
same,Percent Control,"[2]; 1-5 leaf stage, 7 days old, 1.0 lb ai/acre, 7 DAT",0%
same,Percent Control,"[2]; 1-5 leaf stage, 7 days old, 1.0 lb ai/acre, 14 DAT",0%
same,Percent Control,"[2]; 1-5 leaf stage, 7 days old, 1.0 lb ai/acre, 21 DAT",0%
same,Percent Control,"[2]; 5-7 leaves, cut to 6 cm tall, 28 days old, 0.375 lb ai/acre, 1 DAT",0%
same,Percent Control,"[2]; 5-7 leaves, cut to 6 cm tall, 28 days old, 0.375 lb ai/acre, 3 DAT",5%
same,Percent Control,"[2]; 5-7 leaves, cut to 6 cm tall, 28 days old, 0.375 lb ai/acre, 7 DAT",5%
same,Percent Control,"[2]; 5-7 leaves, cut to 6 cm tall, 28 days old, 0.375 lb ai/acre, 14 DAT",5%
same,Percent Control,"[2]; 5-7 leaves, cut to 6 cm tall, 28 days old, 0.375 lb ai/acre, 21 DAT",0%
same,Percent Control,"[2]; 5-7 leaves, cut to 6 cm tall, 28 days old, 0.75 lb ai/acre, 1 DAT",0%
same,Percent Control,"[2]; 5-7 leaves, cut to 6 cm tall, 28 days old, 0.75 lb ai/acre, 3 DAT",0%
same,Percent Control,"[2]; 5-7 leaves, cut to 6 cm tall, 28 days old, 0.75 lb ai/acre, 7 DAT",2%
same,Percent Control,"[2]; 5-7 leaves, cut to 6 cm tall, 28 days old, 0.75 lb ai/acre, 14 DAT",2%
same,Percent Control,"[2]; 5-7 leaves, cut to 6 cm tall, 28 days old, 0.75 lb ai/acre, 21 DAT",0%
same,Percent Control,"[2]; 5-7 leaves, cut to 6 cm tall, 28 days old, 1.0 lb ai/acre, 1 DAT",0%
same,Percent Control,"[2]; 5-7 leaves, cut to 6 cm tall, 28 days old, 1.0 lb ai/acre, 3 DAT",5%
same,Percent Control,"[2]; 5-7 leaves, cut to 6 cm tall, 28 days old, 1.0 lb ai/acre, 7 DAT",5%
same,Percent Control,"[2]; 5-7 leaves, cut to 6 cm tall, 28 days old, 1.0 lb ai/acre, 14 DAT",5%
same,Percent Control,"[2]; 5-7 leaves, cut to 6 cm tall, 28 days old, 1.0 lb ai/acre, 21 DAT",0%
same,Percent Control,[3]; 7 DAT,54%
same,Percent Control,[3]; 14 DAT,66%
same,Percent Control,[3]; 21 DAT,67%
same,Percent Control,"[4]; 0.25 lb ai/acre, 2 DAT",10%
same,Percent Control,"[4]; 0.25 lb ai/acre, 7 DAT",10%
same,Percent Control,"[4]; 0.25 lb ai/acre, 14 DAT",10%
same,Percent Control,"[4]; 0.25 lb ai/acre, 20 DAT",10%
same,Percent Control,"[4]; 0.5 lb ai/acre, 2 DAT",0%
same,Percent Control,"[4]; 0.5 lb ai/acre, 7 DAT",0%
same,Percent Control,"[4]; 0.5 lb ai/acre, 14 DAT",0%
same,Percent Control,"[4]; 0.5 lb ai/acre, 20 DAT",0%
same,Percent Control,"[4]; 0.75 lb ai/acre, 2 DAT",0%
same,Percent Control,"[4]; 0.75 lb ai/acre, 7 DAT",0%
same,Percent Control,"[4]; 0.75 lb ai/acre, 14 DAT",0%
same,Percent Control,"[4]; 0.75 lb ai/acre, 20 DAT",0%
same,Percent Control,"[4]; 1.0 lb ai/acre, 2 DAT",0%
same,Percent Control,"[4]; 1.0 lb ai/acre, 7 DAT",0%
same,Percent Control,"[4]; 1.0 lb ai/acre, 14 DAT",0%
same,Percent Control,"[4]; 1.0 lb ai/acre, 20 DAT",0%
same,Percent Control,"[4]; 1.25 lb ai/acre, 2 DAT",10%
same,Percent Control,"[4]; 1.25 lb ai/acre, 7 DAT",10%
same,Percent Control,"[4]; 1.25 lb ai/acre, 14 DAT",10%
same,Percent Control,"[4]; 1.25 lb ai/acre, 20 DAT",10%

# From patent publication US10897901B2, “Herbicidal composition” (FMC Corporation, priority 2007, dated 2021)
